Data published in ChEMBL document CHEMBL2439953, “Dimeric argininamide-type neuropeptide Y receptor antagonists: chiral discrimination between Y1 and Y4 receptors” (Bioorg Med Chem, 2013).

How the values were obtained:
[1] = target: T1, Neuropeptide Y receptor type 1 (Homo sapiens, UniProt P25929); test: Displacement of [3H]UR-MK114 from human neuropeptide Y receptor type 1 expressed in human SK-N-MC cells; type: cell-based
T1 sequence (P25929 whole entry): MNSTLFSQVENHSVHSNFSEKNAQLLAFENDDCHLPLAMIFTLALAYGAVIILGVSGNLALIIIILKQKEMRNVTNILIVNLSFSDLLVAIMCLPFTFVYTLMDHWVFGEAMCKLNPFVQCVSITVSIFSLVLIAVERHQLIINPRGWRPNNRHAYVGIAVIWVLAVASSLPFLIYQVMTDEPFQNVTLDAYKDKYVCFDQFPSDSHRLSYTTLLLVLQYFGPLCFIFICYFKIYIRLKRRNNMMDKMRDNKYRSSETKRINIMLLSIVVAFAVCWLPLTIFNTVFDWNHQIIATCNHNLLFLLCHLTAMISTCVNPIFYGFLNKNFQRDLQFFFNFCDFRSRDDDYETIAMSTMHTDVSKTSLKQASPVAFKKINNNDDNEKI

[2] = target: T2, Neuropeptide Y receptor type 2 (Homo sapiens, UniProt P49146); test: Binding affinity to human neuropeptide Y receptor type 2 receptor expressed in CHO cells using Cy5-pNPY by flow cytometric analysis; type: cell-based
T2 sequence (P49146 whole entry): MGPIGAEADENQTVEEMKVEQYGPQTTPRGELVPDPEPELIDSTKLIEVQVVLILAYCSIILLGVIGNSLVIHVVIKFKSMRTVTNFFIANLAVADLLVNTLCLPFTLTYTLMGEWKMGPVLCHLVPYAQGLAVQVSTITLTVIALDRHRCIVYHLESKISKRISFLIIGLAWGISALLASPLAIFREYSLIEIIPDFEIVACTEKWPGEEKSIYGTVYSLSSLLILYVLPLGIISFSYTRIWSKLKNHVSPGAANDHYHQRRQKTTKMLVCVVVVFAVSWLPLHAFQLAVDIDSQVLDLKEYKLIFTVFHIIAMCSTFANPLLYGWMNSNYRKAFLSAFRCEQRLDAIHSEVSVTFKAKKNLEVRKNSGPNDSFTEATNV

[3] = target: T3, Neuropeptide Y receptor type 4 (Homo sapiens, UniProt P50391); test: Antagonist activity at human neuropeptide Y receptor type 4 expressed in CHO cells co-expressing Gqi5-mtAEQ assessed as inhibition of hPP-induced calcium mobilization by Aequorin assay; type: functional, cell-based
T3 sequence (P50391 whole entry): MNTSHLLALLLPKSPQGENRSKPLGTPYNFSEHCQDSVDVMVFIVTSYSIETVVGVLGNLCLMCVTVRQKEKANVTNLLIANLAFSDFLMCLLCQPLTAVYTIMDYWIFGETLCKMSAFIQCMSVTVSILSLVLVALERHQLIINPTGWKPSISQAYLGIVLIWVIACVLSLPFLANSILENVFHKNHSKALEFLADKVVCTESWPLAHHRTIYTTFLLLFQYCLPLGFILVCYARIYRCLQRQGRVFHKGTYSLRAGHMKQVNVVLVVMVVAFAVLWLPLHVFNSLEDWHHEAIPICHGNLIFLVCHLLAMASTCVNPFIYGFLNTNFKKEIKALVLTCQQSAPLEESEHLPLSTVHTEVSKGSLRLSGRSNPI

[4] = target: T3, Neuropeptide Y receptor type 4; test: Binding affinity to human neuropeptide Y receptor type 4 receptor expressed in CHO cells using Cy5-[K4]-hPP by flow cytometric analysis; type: cell-based
[5] = target: T4, Neuropeptide Y receptor type 5 (Homo sapiens, UniProt Q15761); test: Binding affinity to human neuropeptide Y receptor type 5 receptor expressed in HEC-1B cells using Cy5-pNPY by flow cytometric analysis; type: cell-based
T4 sequence (Q15761 whole entry): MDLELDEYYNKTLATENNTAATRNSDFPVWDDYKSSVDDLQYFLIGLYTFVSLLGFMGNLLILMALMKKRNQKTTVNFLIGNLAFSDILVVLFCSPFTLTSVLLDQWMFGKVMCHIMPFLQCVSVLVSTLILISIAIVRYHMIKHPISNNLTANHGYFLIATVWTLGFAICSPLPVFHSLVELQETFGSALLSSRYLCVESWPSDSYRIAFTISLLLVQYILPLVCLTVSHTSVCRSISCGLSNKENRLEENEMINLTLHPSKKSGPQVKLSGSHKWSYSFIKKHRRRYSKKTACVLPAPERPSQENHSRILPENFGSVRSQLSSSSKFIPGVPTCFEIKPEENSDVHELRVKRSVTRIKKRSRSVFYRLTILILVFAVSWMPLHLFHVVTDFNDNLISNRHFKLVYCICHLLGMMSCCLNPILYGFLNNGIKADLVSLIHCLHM

[6] = target: T5, Neuropeptide Y receptor type 1 (Homo sapiens) (UniProt P25929); test: Antagonist activity at neuropeptide Y receptor type 1 in HEL assessed as inhibition of pNPY-induced calcium mobilization by Fura-2 calcium assay; type: functional
T5 sequence (whole entry): T1 sequence (P25929 whole entry)

[7] = target: T1, Neuropeptide Y receptor type 1; test: Displacement of [3H]UR-MK114 from human neuropeptide Y receptor type 1 expressed in human MCF7 cells; type: cell-based

SMILES	Ki [1] [nM]	Ki [2] [nM]	Kb [3] [nM]	Ki [4] [nM]	Ki [5] [µM]	Kb [6] [nM]	Ki [7] [nM]
NCCN(CCNC(=O)c1ccc(C(=O)NCCOCCOCCNC(=O)/N=C(/N)NCCC[C@@H](NC(=O)C(c2ccccc2)c2ccccc2)C(=O)NCc2ccc(O)cc2)cc1)CCNC(=O)c1ccc(C(=O)NCCOCCOCCNC(=O)/N=C(/N)NCCC[C@@H](NC(=O)C(c2ccccc2)c2ccccc2)C(=O)NCc2ccc(O)cc2)cc1			20	130	> 5	0.25	48
NCCOCCOCCNC(=O)/N=C(/N)NCCC[C@H](NC(=O)C(c1ccccc1)c1ccccc1)C(=O)NCc1ccc(CNC(N)=O)cc1	> 5000		> 5000	> 5000		> 5000	
NCCN(CCNC(=O)CCC(=O)NCCCCCCNC(=O)/N=C(\N)NCCC[C@H](NC(=O)CC1(CC(=O)N2CCN(C3c4ccccc4NC(=O)c4ccccc43)CC2)CCCC1)C(=O)NCCn1c(=O)n(-c2ccccc2)n(-c2ccccc2)c1=O)CCNC(=O)CCC(=O)NCCCCCCNC(=O)/N=C(\N)NCCC[C@@H](NC(=O)C(c1ccccc1)c1ccccc1)C(=O)NCc1ccc(O)cc1 (mixture of isomers)	230	85	72	910	> 5	1.5	260
N=C(N)NCCC[C@@H](NC(=O)C(c1ccccc1)c1ccccc1)C(=O)NCc1ccc(CNC(=O)NCCCCNC(=O)CCCC(=O)NCCN(CCN)CCNC(=O)CCCC(=O)NCCCCNC(=O)NCc2ccc(CNC(=O)[C@@H](CCCNC(=N)N)NC(=O)C(c3ccccc3)c3ccccc3)cc2)cc1	330	> 5000	> 5000	3500	> 5	120	430
N/C(=N/C(=O)CCCCCCC(=O)/N=C(\N)NCCC[C@@H](NC(=O)C(c1ccccc1)c1ccccc1)C(=O)NCc1ccc(O)cc1)NCCC[C@@H](NC(=O)C(c1ccccc1)c1ccccc1)C(=O)NCc1ccc(O)cc1			98			3.5	

Continued, values first:

Ki [1] [nM]	Ki [2] [nM]	Kb [3] [nM]	Ki [4] [nM]	Ki [5] [µM]	Kb [6] [nM]	Ki [7] [nM]	SMILES
25	1800	41	470	> 5	1.1	37	NCCN(CCNC(=O)CCC(=O)NCCOCCOCCNC(=O)/N=C(/N)NCCC[C@@H](NC(=O)C(c1ccccc1)c1ccccc1)C(=O)NCc1ccc(O)cc1)CCNC(=O)CCC(=O)NCCOCCOCCNC(=O)/N=C(/N)NCCC[C@@H](NC(=O)C(c1ccccc1)c1ccccc1)C(=O)NCc1ccc(O)cc1
64	> 5000	36	410	> 5		110	CCC(=O)NCCN(CCNC(=O)c1ccc(C(=O)NCCOCCOCCNC(=O)/N=C(/N)NCCC[C@@H](NC(=O)C(c2ccccc2)c2ccccc2)C(=O)NCc2ccc(O)cc2)cc1)CCNC(=O)c1ccc(C(=O)NCCOCCOCCNC(=O)/N=C(/N)NCCC[C@@H](NC(=O)C(c2ccccc2)c2ccccc2)C(=O)NCc2ccc(O)cc2)cc1
3100	1100	140	310	> 5	110		NCCN(CCNC(=O)CCC(=O)NCCOCCOCCNC(=O)/N=C(/N)NCCC[C@H](NC(=O)C(c1ccccc1)c1ccccc1)C(=O)NCc1ccc(CNC(N)=O)cc1)CCNC(=O)CCC(=O)NCCOCCOCCNC(=O)/N=C(/N)NCCC[C@H](NC(=O)C(c1ccccc1)c1ccccc1)C(=O)NCc1ccc(CNC(N)=O)cc1
29	1500	44	290	> 5		50	NCCN(CCNC(=O)CCCC(=O)NCCOCCOCCNC(=O)/N=C(/N)NCCC[C@@H](NC(=O)C(c1ccccc1)c1ccccc1)C(=O)NCc1ccc(O)cc1)CCNC(=O)CCCC(=O)NCCOCCOCCNC(=O)/N=C(/N)NCCC[C@@H](NC(=O)C(c1ccccc1)c1ccccc1)C(=O)NCc1ccc(O)cc1
30	620	73	390	> 5	4.2		NCCN(CCNC(=O)CCCC(=O)/N=C(/N)NCCC[C@@H](NC(=O)C(c1ccccc1)c1ccccc1)C(=O)NCc1ccc(O)cc1)CCNC(=O)CCCC(=O)/N=C(/N)NCCC[C@@H](NC(=O)C(c1ccccc1)c1ccccc1)C(=O)NCc1ccc(O)cc1
230	4000	96	290	> 5	4.2	210	NCCN(CCNC(=O)CCC(=O)NCCOCCOCCNC(=O)/N=C(/N)NCCC[C@@H](NC(=O)C(c1ccccc1)c1ccccc1)C(=O)NCc1ccc(CNC(N)=O)cc1)CCNC(=O)CCC(=O)NCCOCCOCCNC(=O)/N=C(/N)NCCC[C@@H](NC(=O)C(c1ccccc1)c1ccccc1)C(=O)NCc1ccc(CNC(N)=O)cc1
